Data as given in publication PMC12067128, “Macrocyclization: Enhancing Drug-like Properties of Discoidin Domain Receptor Kinase Inhibitors” (ACS Medicinal Chemistry Letters, 2025).
Read-outs that look alike come from different tables or passages of the source.

Legend:
EPSA polarity descriptor = format: physicochemical; settings: almost fully nonpolar environment; polarity in nonpolar environment
Description: Polarity is quantified by two descriptors: EPSA and Δlog kw ^IAM. The first is measured in an almost fully nonpolar environment, and the second describes polarity in an aqueous medium. […] This is also in line with the higher solubility of KIMCs over 1.

in vitro = settings: dog, MDCK, pH 7.4
[1] = Caco-2 membrane permeability assay; format: in vitro ADME; settings: human
Description: (§1) Lucifer Yellow (LY) was added to the apical buffer in all wells to assess viability of the cell layer. As LY cannot freely permeate lipophilic barriers, a high degree of LY transport indicates poor integrity of the cell layer and wells with a LY Papp > 10 x 10-6 cm/s were rejected. Compound recovery from the wells was determined from MS responses (normalised to internal standard) in donor and acceptor chambers at the end of incubation compared to response in the donor chamber pre- […]
(§2) which may reduce the reliability of a result.
(§3) Caco-2 membrane permeability assay
(§4) Caco-2 cells (ECACC) were cultured in DMEM, 10% FBS, 1% NEAA, Hepes buffer 10 mM and in 50 U/mL penicillin and […] streptomycin. For transport studies, 200,000 cells/well were seeded on Millicell 24-well cell culture plates. After 24 hours of incubation at 37 °C and 5% CO2, the medium was changed with Enterocyte Differentiation Medium (Becton Dickinson), which allows Caco-2 cells to establish within three days a differentiated enterocyte monolayer. The permeability of the compounds across the cells’ monolayer was determined by measuring their transport in both directions: apical to basolateral (A → B) and basolateral to apical (B → A). For A → B directional transport, the donor working solution with test article 10 m M) was added to the apical (A) compartment and HBSS (pH 7.4) was added to the basolateral (B). For B → A directional transport, the donor working solution (with test article 10 m M) was added to the basolateral (B) compartment and HBSS (pH 7.4) was added to the apical (A). Samples were collected at T0 and after 2h incubation (5% CO2, 95% relative humidity, 37 °C) for LC-MS/MS analyses. The Papp expressed as nm/sec was calculated as follows: Papp (nm/sec) = (Vr/C0) x (1/A) x (Cr(t)/T) x 1000 000. Where
Vr is the volume of the solution in the receiving compartment (mL); C0 is initial test compound concentration in the donor compartment (expressed as area ratio); A is the membrane surface area (cm2); Cr (t) = measured concentration of the receiver well at time T120 (expressed as area ratio) and T is time of incubation (sec). Efflux ratio was also measured to understand if the compounds undergo active efflux: Efflux ratio = Papp [B > A] / Papp [A > B]. The rank order of apparent permeability of the test compound was compared with that of known reference compounds tested in the same experiment, including Sulpiride and Metoprolol (as marker for low and high permeability, respectively and Talinolol (as known P-gp substrate). […]

[2] = Microsomes stability (clearance in human microsomes); format: in vitro ADME; settings: pH 7.4, 0.8 mg protein/mL, 1 mM NADPH, 37 °C, read-out: CLint h mic (clearance in human microsomes)
Description: values in Caco-2 assay were: <10 nm/s = low level; 10-50 nm/s = medium level; >50 nm/s = high […]
Test compounds were incubated, in duplicate, at the concentration of 1 μM with liver microsomes (0.8 mg protein/mL) in Dulbecco’s buffer (pH 7.4) at 37 °C in the presence of 1 mM NADPH. At different time points (0, 5, 10, 20, 30, and 60 min), 50 μL aliquots of the incubates were taken, added with 80 μL of ice-cold acetonitrile, and 20 μL of 1 μM warfarin in acetonitrile (injection check) to stop the reaction, and samples were centrifuged. The supernatants were analyzed by LC−MS/MS for unchanged compounds. Test compounds were incubated with liver microsomes in Dulbecco’s buffer in the absence of NADPH for 0 and 60 min, as control. Midazolam at the concentration of 1 μM, was incubated with microsomes as positive control for phase I activity of microsomes. Control samples were processed as test compound samples.

MDCK-WT wild-type cells [3] = tested on: MDCK-WT wild-type cells
[4] = MDCK-WT permeability assay; settings: dog, MDCK, pH 7.4
MDCK-WT wild-type cells [5] = experiment: MDCK-WT permeability assay
Pgp = target: T1, Pgp (Homo sapiens, UniProt P08183); experiment: Pgp substrate assessment from Caco-2 permeability with/without Pgp inhibitor; format: in vitro ADME
T1 construct: host or cells: Caco-2 cells
Description: as §1, §2, §3
as §4, with “For B → A directional transport, the donor working solution (with test article 10 m M) was added to the basolateral (B) compartment and HBSS (pH 7.4) was added to the apical (A). Samples were collected at T0 and after 2h incubation (5% CO2, 95% relative humidity, 37 °C) for LC-MS/MS analyses.” left out, “Where” left out
Vr is the volume of the solution in the receiving compartment (mL); C0 is initial test compound concentration in the donor compartment (expressed as area ratio); A is the membrane surface area (cm2); Cr (t) = measured concentration of the receiver well at time T120 (expressed as area ratio) and T is time of incubation (sec). Efflux ratio was also measured to understand if the compounds undergo active efflux: Efflux ratio = Papp [B > A] / Papp [A > B]. […]

[6] = Caco-2, pH 7.4, Caco-2 Papp AB with Pgp inhibitor
[7] = Caco-2, pH 7.4, Caco-2 Papp AB without Pgp inhibitor
[8] = Caco-2, pH 7.4, Caco-2 Papp BA with Pgp inhibitor
[9] = Caco-2, pH 7.4, Caco-2 Papp BA without Pgp inhibitor
[10] = Caco-2, pH 7.4, A to B, without Pgp inhibitor, pH 7.4, 2 h, read-out: Caco-2 Papp AB without Pgp inhibitor
[11] = Caco-2, pH 7.4, B to A, without Pgp inhibitor, pH 7.4, 2 h, read-out: Caco-2 Papp BA without Pgp inhibitor (converted)
[12] = Caco-2, pH 7.4, with Pgp inhibitor (name and concentration not stated), A to B, with Pgp inhibitor, pH 7.4, 2 h, read-out: Caco-2 Papp AB with Pgp inhibitor
[13] = Caco-2, pH 7.4, with Pgp inhibitor (name and concentration not stated), B to A, with Pgp inhibitor, pH 7.4, 2 h, read-out: Caco-2 Papp BA with Pgp inhibitor (converted)

T1 sequence (P08183 whole entry): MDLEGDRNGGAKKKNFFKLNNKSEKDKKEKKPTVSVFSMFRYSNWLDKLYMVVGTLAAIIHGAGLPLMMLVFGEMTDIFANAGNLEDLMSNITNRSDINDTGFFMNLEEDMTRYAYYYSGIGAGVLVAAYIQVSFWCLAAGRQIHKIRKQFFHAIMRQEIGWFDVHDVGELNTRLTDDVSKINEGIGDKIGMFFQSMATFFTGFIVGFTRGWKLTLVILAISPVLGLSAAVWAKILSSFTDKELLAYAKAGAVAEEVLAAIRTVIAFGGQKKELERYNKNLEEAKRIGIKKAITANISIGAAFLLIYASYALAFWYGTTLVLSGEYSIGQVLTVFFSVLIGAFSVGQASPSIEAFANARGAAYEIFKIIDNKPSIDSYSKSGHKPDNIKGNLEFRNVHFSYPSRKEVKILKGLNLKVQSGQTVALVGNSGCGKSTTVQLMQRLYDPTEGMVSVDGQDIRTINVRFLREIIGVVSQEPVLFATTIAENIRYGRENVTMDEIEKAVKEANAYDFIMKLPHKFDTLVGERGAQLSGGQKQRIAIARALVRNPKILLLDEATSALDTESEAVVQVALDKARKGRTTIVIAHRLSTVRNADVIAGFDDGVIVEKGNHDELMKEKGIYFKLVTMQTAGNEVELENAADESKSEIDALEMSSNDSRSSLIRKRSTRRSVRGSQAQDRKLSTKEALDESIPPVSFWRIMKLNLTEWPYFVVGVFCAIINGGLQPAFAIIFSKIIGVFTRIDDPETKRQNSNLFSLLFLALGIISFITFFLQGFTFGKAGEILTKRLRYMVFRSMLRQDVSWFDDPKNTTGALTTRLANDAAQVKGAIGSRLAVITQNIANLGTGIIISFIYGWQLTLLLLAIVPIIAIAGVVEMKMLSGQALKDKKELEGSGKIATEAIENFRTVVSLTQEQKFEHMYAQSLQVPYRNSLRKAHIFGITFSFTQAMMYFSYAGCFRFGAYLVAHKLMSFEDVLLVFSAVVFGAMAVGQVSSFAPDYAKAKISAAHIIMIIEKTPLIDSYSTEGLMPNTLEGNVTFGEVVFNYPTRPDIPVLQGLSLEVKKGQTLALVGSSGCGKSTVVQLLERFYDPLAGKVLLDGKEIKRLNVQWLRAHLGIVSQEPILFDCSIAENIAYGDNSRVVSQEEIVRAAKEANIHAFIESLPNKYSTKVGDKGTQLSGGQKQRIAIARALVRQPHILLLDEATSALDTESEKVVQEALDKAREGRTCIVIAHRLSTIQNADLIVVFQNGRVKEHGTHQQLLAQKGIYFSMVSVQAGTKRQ

Structure (SMILES) | EPSA (EPSA polarity descriptor) [A^2] | Papp A→B at 1 h, 10 µM (in vitro) [×10⁻⁶ cm/s] | Papp A→B at 2 h, 10 µM [1, 6] [×10⁻⁶ cm/s] | Papp A→B at 2 h, 10 µM [1, 7] [×10⁻⁶ cm/s] | Papp B→A at 2 h, 10 µM [1, 8] [×10⁻⁶ cm/s] | Papp B→A at 2 h, 10 µM [1, 9] [×10⁻⁶ cm/s] | microsomal CLint at 1 h, 1 µM ([2]; microsomes) [µL/min/mg] | permeability in the MDCK model (in words) (MDCK-WT wild-type cells [3]) | Papp A→B at 1 h, 10 µM [4] [×10⁻⁶ cm/s] | permeability in the MDCK model (in words) (MDCK-WT wild-type cells [5]) | Papp A→B at 2 h, 10 µM [1, 10] [×10⁻⁶ cm/s] | Papp B→A at 2 h, 10 µM [1, 11] [×10⁻⁶ cm/s] | Papp A→B at 2 h, 10 µM [1, 12] [×10⁻⁶ cm/s] | Papp B→A at 2 h, 10 µM [1, 13] [×10⁻⁶ cm/s] | microsomal CLint at 1 h, 1 µM ([2]; liver microsomes) [µL/min/mg] | Pgp substrate (Pgp; Caco-2 model) | Pgp substrate (Pgp; Caco-2)
Cn1cc2c3nc(ncc31)Nc1cnn(c1)CCCNCCOc1ccc-2cc1 [Compound 5a] | 125 | 18.4 ± 0.6 | 19.9 ± 2.7 | 10.2 ± 1.5 | 13.5 | 24.2 | 80.5 ± 2.7 | highly permeable | – | – | – | – | – | – | – | – | –
Cn1cc2c3nc(ncc31)Nc1cnn(c1)CCCNC(=O)COc1ccc-2cc1 [Compound 5b] | 106 | – | – | – | – | – | – | – | 21 ± 0.8 | highly permeable | 3 ± 0.6 | 21.5 | 22.8 ± 2.8 | 15.9 | 88.5 ± 9.6 | YES | –
c1cc2nc(n1)Nc1cnn(c1)CCCNCCOc1ccc(cc1)N2 [Compound 6a] | 127 | 5.8 ± 1.1 | 8.7 ± 1.9 | 1.9 ± 0.5 | 7 | 22 | 22.1 ± 1.4 | moderately permeable | – | – | – | – | – | – | – | – | YES
O=C1COc2ccc(cc2)Nc2ccnc(n2)Nc2cnn(c2)CCCN1 [Compound 6b] | 108 | – | – | – | – | – | – | – | 4.8 ± 1 | moderately permeable | 0.6 ± 0.1 | 22.3 | 5.5 ± 0.2 | 20.3 | 12.1 ± 0.1 | YES | –
